Measured values as given in the supplement of paper PMC10307832.

How the values were obtained:
[1] = compound: COCC[n+]1c2c(n(Cc3cnccn3)c1C)C(=O)c1ccccc1C2=O [YM155] + Cc1cc(Nc2cc(N3CCN(C)CC3)nc(Sc3ccc(NC(=O)C4CC4)cc3)n2)n[nH]1 [Tozasertib] (partner 0.1 µM); test: relative viability (nuclei count vs DMSO), 5 days (fraction); higher = more cells survive
Summary of the method: (§1)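 The day after seeding in 1536-well plates, lung cancer cell lines were treated by pin tool with a single drug, or with a fixed anchor-drug dose together with five library-drug doses (not always all listed) in √10 steps. After 5 days, a combined fix-and-stain solution (final 0.05% Triton X-100, 1% formaldehyde, 1 ug/ml Hoechst) was added. Nuclei counted on 4× images gave relative viability as treated counts over vehicle counts, reported as the median of duplicate plates.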

[2] = compound: CC(C)(C)c1cc(NC(=O)Nc2ccc(-c3cn4c(n3)sc3cc(OCCN5CCOCC5)ccc34)cc2)no1 [Quizartinib] + COc1cc2c(Oc3ccc(NC(=O)C4(C(=O)Nc5ccc(F)cc5)CC4)cc3F)ccnc2cc1OCCCN1CCOCC1 [Foretinib] (partner 0.25 µM); test: as above
Summary of the method: as §1

Cell Line	relative viability ([1]; first compound 0.002 µM)	relative viability ([1]; first compound 0.006325 µM)	relative viability ([1]; first compound 0.02 µM)	relative viability ([1]; first compound 0.06325 µM)	relative viability ([2]; first compound 0.001 µM)	relative viability ([2]; first compound 0.003162 µM)	relative viability ([2]; first compound 0.01 µM)	relative viability ([2]; first compound 0.03162 µM)	relative viability ([2]; first compound 0.1 µM)
HCC-827	0.421	0.416	0.448	0.475	1.02	0.922	1.07	1.06	1.07
HOP-62	0.384	0.383	0.391	0.354	0.907	1.09	1.22	1.07	1.09
IA-LM					1.05	1.01	1.17	1.14	1.02
LC-2-ad	0.469	0.425	0.438	0.299	0.883	0.857	0.977		0.904
LCLC-97TM1	0.197	0.202	0.227	0.22	0.889	0.802	0.906	0.953	0.971
LCLC-103H	0.569	0.454	0.464	0.487	0.786	0.7	0.8	0.788	0.995
LK-2	0.154	0.188	0.208	0.203	1.29		1.03	1.33	1.43
LOU-NH91	0.667	0.665	0.712	0.603	0.967	0.903	0.906	0.902	1.02
LU99A	0.26	0.255	0.318	0.265	0.715	0.871	0.838	0.808	0.603
LXF-289	0.186	0.214	0.205	0.183	0.913	1	1.13	0.948	0.888
NCI-H23	0.373	0.345	0.53	0.286		1.03	0.975	0.934	0.819
NCI-H322M	0.461	0.496	0.504	0.46	0.86	0.939	0.939	0.851	0.954
NCI-H358	0.111	0.126	0.103	0.0626	0.613	0.796	0.634	0.438	0.642
NCI-H441	0.559	0.63	0.645	0.467	1.23	0.923	1.13		0.914
NCI-H460	0.604	0.468	0.535	0.413	0.916	0.961	1.03	0.652	0.976
NCI-H520	0.432	0.496	0.48	0.377	0.81	0.636	0.894	0.722	0.541
NCI-H522	0.522	0.557	0.599	0.582					
NCI-H596	0.847	0.811	0.953	1.03	0.925	0.816	0.949	0.903	0.754
NCI-H647	0.317	0.302	0.401	0.303	0.818	1.09	1.1	1.16	1.17
NCI-H650	0.742	0.686	0.764	0.646	1.02	1.04	1.16	0.978	1.18
